Data reported in patent publication US20260285831A1, “LACTAM DERIVATIVES FOR INHIBITING NLRP3 AND USES THEREOF” (Ventus Therapeutics U.S., Inc., priority 2023, published 2026).
pIC50: −log10 of the molar value. Read-outs that look alike come from different tables or passages of the source.

Biological target: T1, human NLRP3 (Homo sapiens, UniProt Q96P20)
T1 construct: Human whole blood is drawn from healthy volunteers after obtaining written informed consent; from tissue; host or cells: human whole blood from healthy volunteers (heparin lithium tubes)
T1 sequence (Q96P20 whole entry): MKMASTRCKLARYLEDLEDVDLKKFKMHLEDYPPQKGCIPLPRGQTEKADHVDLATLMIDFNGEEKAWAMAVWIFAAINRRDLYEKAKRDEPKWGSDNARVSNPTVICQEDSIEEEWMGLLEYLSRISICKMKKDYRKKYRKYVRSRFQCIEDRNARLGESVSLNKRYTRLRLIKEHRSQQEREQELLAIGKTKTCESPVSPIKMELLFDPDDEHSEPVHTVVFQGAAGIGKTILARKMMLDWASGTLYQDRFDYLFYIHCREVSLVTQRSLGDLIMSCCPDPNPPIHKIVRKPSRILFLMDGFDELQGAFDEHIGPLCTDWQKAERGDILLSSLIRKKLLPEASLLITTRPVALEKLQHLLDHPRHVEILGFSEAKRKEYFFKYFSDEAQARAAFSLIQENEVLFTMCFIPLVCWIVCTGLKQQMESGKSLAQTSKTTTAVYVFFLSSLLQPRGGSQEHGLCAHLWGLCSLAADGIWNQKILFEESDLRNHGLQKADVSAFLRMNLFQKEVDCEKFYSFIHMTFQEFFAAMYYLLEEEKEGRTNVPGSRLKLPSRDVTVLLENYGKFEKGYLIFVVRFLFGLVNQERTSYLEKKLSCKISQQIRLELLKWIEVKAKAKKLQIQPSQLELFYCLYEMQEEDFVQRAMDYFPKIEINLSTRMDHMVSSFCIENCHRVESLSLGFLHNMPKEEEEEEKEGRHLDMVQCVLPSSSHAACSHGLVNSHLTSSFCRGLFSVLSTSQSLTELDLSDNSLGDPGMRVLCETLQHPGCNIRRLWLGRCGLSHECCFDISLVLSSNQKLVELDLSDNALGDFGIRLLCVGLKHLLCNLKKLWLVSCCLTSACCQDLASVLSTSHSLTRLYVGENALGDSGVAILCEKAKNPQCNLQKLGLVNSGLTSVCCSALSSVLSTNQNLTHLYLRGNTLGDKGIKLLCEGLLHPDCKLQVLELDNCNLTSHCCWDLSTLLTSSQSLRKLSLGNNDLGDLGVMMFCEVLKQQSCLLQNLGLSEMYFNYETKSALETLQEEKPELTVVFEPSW
Experiment: Human whole blood (hWB) NLRP3 assay (IL-1β release after LPS priming and ATP activation)
Assay type: cell-based
Conditions: for pIC50: human whole blood, read-out: hWB IL-1β IC50
Protocol: Human Whole Blood (hWB) NLRP3 Assay
Human whole blood is drawn from healthy volunteers after obtaining written informed consent. Heparin lithium coated tubes are used to collect blood from volunteers. Blood samples are distributed on 96 well plates using 90 μl per well.
Priming procedure: Priming is performed by adding 5 μl of LPS (026:B6; Sigma L-2654) at a final concentration of 1 μg/ml for 4.5 hours in a humidified incubator with 37° C., 5% CO2. Thirty minutes prior to NLRP3 activation, 5 μl of a 20× compound solution or vehicle (2% dimethylsulfoxide (DMSO)) is added to each well and plates were incubated on a shaker (450 rpm) in a humidified incubator with 37° C., 5% CO2.
Alternative priming procedure: Thirty minutes prior to LPS priming, 5 μl of a 20× compound solution or vehicle (2% dimethylsulfoxide (DMSO)) is added to each well and plates were incubated on a shaker (450 rpm) in a humidified incubator with 37° C., 5% CO2. Priming is performed by adding 5 μl of LPS (026:B6; Sigma L-2654) at a final concentration of 1 μg/ml for 5 hours in a humidified incubator with 37° C., 5% CO2.
Activation is then performed by adding 3.3 μl of a 31×ATP solution per well. At the end of the 30 minutes stimulation, the plates are centrifuged (800 g, 10 min, room temperature) and the plasma from each well is frozen at −80° C. […] levels in the supernatant were analyzed using a mesoscale discovery assay (MSD K151TUK) according to the manufacturers' instructions.
There is no detectable difference in assay IC50 results using the priming procedure versus the alternative priming procedure.
Data provided in Table C, below. hWB […] Assay: A represents an IC50 value <0.3 μM; B represents an IC50 value ≥0.3 μM and <0.5 μM; C represents an IC50 value ≥0.5 μM and <1.0 μM; D represents an IC50 value ≥1.0 μM and <10 μM; E represents an IC50 value ≥10 μM. Dashed (--) lines indicate no data available.

[1] = LPS 1 μg/ml priming, ATP activation, Table C, class symbols

| Compound | fold more active than 18B* (hWB IL-1β IC50) (R-isomer versus S-isomer 18B*, Table D) [fold] | pIC50 [1] | pIC50 (numeric values of Tables D and E) |
| --- | --- | --- | --- |
| CC1(C)C(=O)N([C@@H]2CCN(CCCC(=O)O)C2=O)c2ccc(C3CC3)c(F)c21 (stereo in doubt) [Compound 18A*, (R)-4-(3-(5-cyclopropyl-4-fluoro-3,3-dimethyl-2-oxoindolin-1-yl)-2-oxopyrrolidin-1-yl)butanoic acid] | > 147 | 5.00 to 6.00 | 5.47 |
| CC1(C)C(=O)N(c2nccn(CCCC(=O)O)c2=O)c2c(F)cc(C(F)(F)F)c(F)c21 [Compound 17, 4-(3-(4,7-difluoro-3,3-dimethyl-2-oxo-5-(trifluoromethyl)indolin-1-yl)-2-oxopyrazin-1(2H)-yl)butanoic acid] | – | 6.00 to 6.30 | – |
| C[C@@H](CCC(=O)O)N1CC[C@H](N2C(=O)C(C)(C)c3c(F)c(C4CC4)cc(F)c32)C1=O (single isomer, unassigned) [Compound 24C*] | – | ≤ 5.00 | – |
| CC1(C)C(=O)N([C@@H]2CCN(CCCC(=O)O)C2=O)c2c(F)cc(Cl)c(F)c21 (stereo in doubt) [Compound 23A, (R)-4-(3-(5-chloro-4,7-difluoro-3,3-dimethyl-2-oxoindolin-1-yl)-2-oxopyrrolidin-1-yl)butanoic acid] | – | 5.00 to 6.00 | – |
